From patent US11272706B2, “Anti-resistance method” (UPL LIMITED, priority 2017, dated 2022)
≈ marks a conversion by molar mass, not a printed value. Like-named read-outs stand apart in the source and are kept apart here.

Legend:
[1] = system: Drechsiera tritici-repentis; experiment: 50% inhibition of spore germination (CI50), five isolates, strobilurin fungicides; type: cell-based; conditions: for Reduction factor of the sensitivity, isolate 01/QTZ: CI50 of sensitivity reference 0.75 mg/L; for Reduction factor of the sensitivity, Average / Reduction factor of the sensitivity, isolate 02/ONX / Reduction factor of the sensitivity, isolate 03/HZT / Reduction factor of the sensitivity, isolate 04/GUA / Reduction factor of the sensitivity, isolate 05/CD: reference 0.75 mg/L
Procedure: However, the highest reduction of sensitivity of the Dtr to fungicides and what better explains the control failure claimed by producers is the CI50 obtained for QoIs fungicides (see Table 4).
Lowercase compare average in the column and capital letters in the line. Average of two experiments.
Taking as Cl50 standard of sensitivity, 0.75 mg/L (Table 4) obtained for pyraclostrobin, it is calculated the reduction factor of the sensitivity of the Dtr to QoIs fungicides (see Table 5).
Cl50 of sensitivity reference of 0.75 mg/L.
When the SRF is close to 1.0 there is no reduction of sensitivity. However, if >1 with different magnitude, it indicates reduced sensitivity of fungi to fungicides. In this case SRF ranged from 1.04 to >53 (see Table 5).

Drechsiera siccans = experiment: 50% inhibition of mycelium growth (IC50), five isolates, DMI fungicides; type: cell-based
Procedure: In the 2003 wheat crop for the first time, there was complaint of leaf spot control failure after continuous use of fungicides DMI+QoI, for 20 years. Until that time there were few reports of the sensitivity of the fungus that is causal agent of yellow spot to fungicides (Stoke, 2006; Tonin, 2009; Beard et al, 2009; Patel et al, 2012). The reference concentrations of sensitivity of Dtr to fungicides found in the literature were 0.17 mg/L in average for the epoxiconazole, propiconazole and tebuconazole. […] Comparing these values with the sensitivity of isolates of Brazil proves the reduced sensitivity occurring here (see Table 3).
Average of two experiments.

soybean rust [2] = system: soybean rust; parameters: Control of soybean rust, crop 2005/06 / Control of soybean rust, crop 2012/13: concentration or dose not given beside the values; conditions: cited from earlier work
soybean rust [3] = conditions: crop 2010/11, cited from earlier work
[4] = spore germination, average of five isolates, read-out: CI50 Average
[5] = spore germination, isolate 01/QTZ, average of two experiments, read-out: CI50 isolate 01/QTZ
[6] = spore germination, isolate 02/ONX, read-out: CI50 isolate 02/ONX
[7] = spore germination, isolate 03/HZT, read-out: CI50 isolate 03/HZT
[8] = spore germination, isolate 04/GUA, read-out: CI50 isolate 04/GUA

Row | Structure (SMILES) | Reduction factor of the sensitivity, isolate 01/QTZ ([1]; isolate 01/QTZ) | Reduction factor of the sensitivity, Average ([1]; average of five isolates) [a] | Reduction factor of the sensitivity, isolate 02/ONX ([1]; isolate 02/ONX) | Reduction factor of the sensitivity, isolate 03/HZT ([1]; isolate 03/HZT) | Reduction factor of the sensitivity, isolate 04/GUA ([1]; isolate 04/GUA) | Reduction factor of the sensitivity, isolate 05/CD ([1]; isolate 05/CD) | IC50 [1, 4] [µg/mL] | IC50 [1, 5] [µg/mL] | IC50 [1, 6] [µg/mL] | IC50 [1, 7] [µg/mL] | IC50 [1, 8] [µg/mL] | other results
1 | CON=C(C(=O)OC)c1ccccc1CON=C(C)c1cccc(C(F)(F)F)c1 [Trifloxystrobin] | A > 53 a | >53 | A > 53 a | A > 53 a | A > 53 a | A > 53 a | > 40 | > 40 | > 40 | > 40 | > 40 | –
2 | CO/C=C(/C(=O)OC)c1ccccc1COc1cccc(C(F)(F)F)n1 [Picoxystrobin] | A > 53a | >53 | A > 53 a | A > 53 a | A > 53 a | A > 53 a | – | – | – | – | – | CI50 Average ([1]; spore germination, average of five isolates): >40 a mg/L; CI50 isolate 01/QTZ ([1]; spore germination, isolate 01/QTZ, average of two experiments): A > 40 a mg/L; CI50 isolate 02/ONX ([1]; spore germination, isolate 02/ONX): A > 40 a mg/L; CI50 isolate 03/HZT ([1]; spore germination, isolate 03/HZT): A > 40 a mg/L; CI50 isolate 04/GUA ([1]; spore germination, isolate 04/GUA): A > 40 a mg/L; CI50 isolate 05/CD ([1]; spore germination, isolate 05/CD): A > 40 a mg/L
3 | COC(=O)N(OC)c1ccccc1COc1ccn(-c2ccc(Cl)cc2)n1 [Pyraclostrobin] | D 1.0 b | – | B 1.13 b | C 1.04 b | E 0.77 b | A 1.37 b | 0.8 (≈ 2.06 µM) | 0.75 (≈ 1.93 µM) | 0.85 (≈ 2.19 µM) | 0.78 (≈ 2.01 µM) | 0.58 (≈ 1.5 µM) | IC50 ([1]; read-out: CI50 isolate 05/CD): 1.03 µg/mL (≈ 2.66 µM); IC50 ([1]; taken from Table 4 as sensitivity reference, read-out: CI50 standard of sensitivity): 0.75 µg/mL (≈ 1.93 µM)
4 | CC(C1CC1)C(O)(Cn1cncn1)c1ccc(Cl)cc1 (stereo not drawn) [Cyproconazole] | – | – | – | – | – | – | – | – | – | – | – | IC50 (Drechsiera siccans; average of five isolates, read-out: IC50 Average): 0.37 µg/mL (≈ 1.27 µM); IC50 (Drechsiera siccans; isolate 01/F30, average of two experiments, read-out: IC50 isolate 01/F30): 0.36 µg/mL (≈ 1.23 µM); IC50 (Drechsiera siccans; isolate 02/RZ, read-out: IC50 isolate 02/RZ): 0.47 µg/mL (≈ 1.61 µM); IC50 (Drechsiera siccans; isolate 03/SF, read-out: IC50 isolate 03/SF): 0.32 µg/mL (≈ 1.1 µM); IC50 (Drechsiera siccans; isolate 04/F52, read-out: IC50 isolate 04/F52): 0.44 µg/mL (≈ 1.51 µM); IC50 (Drechsiera siccans; isolate 05/VQ, read-out: IC50 isolate 05/VQ): 0.29 µg/mL (≈ 0.994 µM); Reduction (%) of control (soybean rust [2]; 2005/06 versus 2012/13 crop): 45.9%; Control of soybean rust, crop 2005/06 (soybean rust [2]; applied preventively, 2005/06 crop): 96.0%; Control of soybean rust, crop 2012/13 (soybean rust [2]; applied preventively, 2012/13 crop): 52.0%; Control (%) (soybean rust [3]; evaluated by AUDPC): 38%; Severity (%) (soybean rust [3]; untreated control 74.0): 58.1%
5 | CO/N=C(/C(=O)OC)c1ccccc1COc1ccccc1C [Kresoxim methyl] | A > 53 a | >53 | A > 53 a | A > 53 a | A > 53 a | A > 53 a | > 40 | > 40 | > 40 | > 40 | > 40 | –
